Measured values as given in patent US7087623B2, “Thiazole and other heterocyclic ligands for mammalian dopamine, muscarinic and serotonin receptors and transporters, and methods of use thereof” (Sepracor Inc., priority 2001, dated 2006).
Where two headings read alike, the source gives them in different places.

Experiments:
[1] = molecular target: T1, human dopamine D3 receptor (Homo sapiens, UniProt P35462); test: Radioligand binding assay, human dopamine D3 receptors ([3H]Spiperone)
T1 construct: expressed in transfected cells; host or cells: CHO

[2] = molecular target: T2, human muscarinic M4 receptor (Homo sapiens, UniProt P08173); test: Binding to human muscarinic M4 receptors ([3H]N-methylscopolamine)
T2 construct: expressed in transfected cells; host or cells: BSR-M4H
T2 sequence (P08173 1-479): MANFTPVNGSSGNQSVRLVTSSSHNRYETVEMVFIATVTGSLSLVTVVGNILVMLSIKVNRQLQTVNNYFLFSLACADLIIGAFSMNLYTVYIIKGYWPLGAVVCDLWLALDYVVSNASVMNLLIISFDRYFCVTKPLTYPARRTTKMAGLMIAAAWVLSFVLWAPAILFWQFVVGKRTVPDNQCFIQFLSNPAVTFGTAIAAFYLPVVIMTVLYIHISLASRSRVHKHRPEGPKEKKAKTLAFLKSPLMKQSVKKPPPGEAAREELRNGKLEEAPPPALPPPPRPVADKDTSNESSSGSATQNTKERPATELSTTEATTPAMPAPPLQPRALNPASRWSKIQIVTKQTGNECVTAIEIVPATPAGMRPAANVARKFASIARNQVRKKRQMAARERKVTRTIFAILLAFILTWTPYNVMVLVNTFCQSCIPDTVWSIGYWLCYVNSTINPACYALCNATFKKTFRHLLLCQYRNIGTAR
Experimental: (§1) This assay measures binding of [^3H]N-methylscopolamine to human muscarinic M4 receptors. BSR-M4H cells transfected with a plasmid encoding the human muscarinic M4 receptor were used to prepare membranes in modified Tris-HCl pH 7.4 buffer using standard techniques. A 5 μg aliquot of membrane was incubated with 0.29 nM [^3H]N-methylscopolamine for 60 minutes at 25° C. Non-specific binding was estimated in the presence of 1 μM atropine. Membranes were filtered and washed 3 times and the filters are counted to determine [^3H]N-methylscopolamine specifically bound. See Buckley, N. J., Bonner, T. I., Buckley, C. M. and Brann, M. R. Antagonist binding properties of five cloned muscarinic receptors expressed in CHO-K1 cells. Mol. Pharmacol. 35: 469–476, 1989.
(§2) The human 5-HT2a and 5-HT2b screens were conducted according to Bonhaus, D. W. et al. Br. J. Pharmacol. 1995, 115, 622. The human […], W. A. et al. J. Neurochem. 1997, 69, 1449. The human 5-HT6 screen was conducted according to Monsama, F. J. et al. Mol. Pharmacol. 1993, 43, 320. The assay to human D3 receptors was conducted according to Sokoloff, P. et al. Nature 1990, 347;146. The human dopamine transporter assay was conducted according to Gu, H. et. al. J. Biol. Chem. 1994, 269 (10);7124; and Giros, B. et al. Trends. Pharmacol. Sci. 1993, 14: 43. The human muscarinic M1–M4 screens were conducted according to Buckley N. J. et al. Mol. Pharmacol. 1989, 35:469.
(§3) The human dopamine transporter assay was conducted according to Gu, H. et. al. J. Biol. Chem. 1994, 269 (10);7124 and Giros, B. et al. Trends. Pharmacol. Sci. 1993, 14: 43. The human muscarinic M1–M4 screens were conducted according to Buckley N. J. et al. Mol. Pharmacol. 199, 35:469

[3] = molecular target: T3, human muscarinic M3 receptor (Homo sapiens, UniProt P20309); test: Binding to human muscarinic M3 receptors ([3H]N-methylscopolamine)
T3 construct: expressed in transfected cells; host or cells: BSR-M3H
Experimental: as §1, with “muscarinic M3” for “muscarinic M4”, “receptors. BSR-M3H” for “receptors. BSR-M4H”, “filters were” for “filters are”
as §2, §3

[4] = molecular target: T4, human serotonin 5-HT2C receptor (Homo sapiens, UniProt P28335); test: Radioligand binding assay, human 5-HT2C receptors ([3H]Mesulergine)
T4 construct: expressed in transfected cells; host or cells: CHO-K1
T4 sequence (P28335 33-458): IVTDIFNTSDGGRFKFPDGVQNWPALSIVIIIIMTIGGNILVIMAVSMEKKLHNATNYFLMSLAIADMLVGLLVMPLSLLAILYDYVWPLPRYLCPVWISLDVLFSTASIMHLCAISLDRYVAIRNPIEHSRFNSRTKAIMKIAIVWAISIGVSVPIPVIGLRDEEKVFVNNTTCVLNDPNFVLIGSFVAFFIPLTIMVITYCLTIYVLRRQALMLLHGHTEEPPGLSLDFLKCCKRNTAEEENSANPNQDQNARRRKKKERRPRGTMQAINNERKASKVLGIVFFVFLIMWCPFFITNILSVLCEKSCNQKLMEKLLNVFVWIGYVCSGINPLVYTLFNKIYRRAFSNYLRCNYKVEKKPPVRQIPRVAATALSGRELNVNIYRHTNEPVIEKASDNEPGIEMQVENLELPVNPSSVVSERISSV
Summary of the method: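 Membranes from CHO-K1 cells stably expressing human 5-HT2C receptor were prepared in modified Tris-HCl pH 7.7 buffer. Non-specific binding was defined with 1 μM mianserin.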

[5] = Example 20 table, read-out: IC50 (nM) Against Human D3 Receptors
[6] = human, Example 101 table, read-out: IC50 (nM) M4
[7] = human, Example 101 table, read-out: IC50 (nM) M3
[8] = human 5-HT2c, Example 16 table, read-out: IC50 (nM) 5-HT2c
[9] = human, Example 100 table, read-out: IC50 (nM) D3
[10] = human, Example 100 table, read-out: IC50 (nM) M4
[11] = human, Example 100 table, read-out: IC50 (nM) M3
[12] = human, Example 100 table, read-out: IC50 (nM) 5-HT2C

T1 sequence (P35462 whole entry): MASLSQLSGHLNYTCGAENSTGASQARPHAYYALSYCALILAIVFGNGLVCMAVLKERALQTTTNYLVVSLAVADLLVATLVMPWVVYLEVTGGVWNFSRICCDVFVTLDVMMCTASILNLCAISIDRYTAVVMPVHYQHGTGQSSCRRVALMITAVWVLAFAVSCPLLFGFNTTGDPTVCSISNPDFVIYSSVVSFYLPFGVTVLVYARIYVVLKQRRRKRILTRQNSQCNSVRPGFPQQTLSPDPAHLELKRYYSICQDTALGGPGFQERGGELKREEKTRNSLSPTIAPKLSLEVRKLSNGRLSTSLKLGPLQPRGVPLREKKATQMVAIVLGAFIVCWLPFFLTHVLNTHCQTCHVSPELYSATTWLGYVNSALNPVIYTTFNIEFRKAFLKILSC
T3 sequence (P20309 whole entry): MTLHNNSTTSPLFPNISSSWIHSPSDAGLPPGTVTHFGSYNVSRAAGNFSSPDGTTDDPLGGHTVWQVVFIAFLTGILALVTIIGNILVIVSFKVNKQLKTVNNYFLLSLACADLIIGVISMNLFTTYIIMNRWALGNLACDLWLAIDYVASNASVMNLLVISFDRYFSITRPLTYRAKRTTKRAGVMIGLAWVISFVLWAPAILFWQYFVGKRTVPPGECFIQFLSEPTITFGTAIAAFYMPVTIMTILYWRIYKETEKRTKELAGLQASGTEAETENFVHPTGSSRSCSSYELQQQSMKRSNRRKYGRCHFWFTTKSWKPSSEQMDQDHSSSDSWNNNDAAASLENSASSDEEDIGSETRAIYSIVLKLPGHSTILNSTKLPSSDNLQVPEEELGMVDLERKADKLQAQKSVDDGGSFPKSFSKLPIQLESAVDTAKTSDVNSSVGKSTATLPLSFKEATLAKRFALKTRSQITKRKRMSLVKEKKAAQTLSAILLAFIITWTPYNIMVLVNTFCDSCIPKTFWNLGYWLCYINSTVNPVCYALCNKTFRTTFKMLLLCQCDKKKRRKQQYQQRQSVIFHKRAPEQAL

Row | SMILES | IC50 [1, 5] [nM] | IC50 [2, 6] [nM] | IC50 [3, 7] [nM] | IC50 [4, 8] [nM] | IC50 [1, 9] [nM] | IC50 [2, 10] [nM] | IC50 [3, 11] [nM] | further results
1 | CN1CCN(c2nc(C3(c4cccc(Cl)c4)CCOCC3)cs2)CC1 [Compound 63] | < 1000 | > 1000 | > 1000 | < 1000 | – | – | – | –
2 | CN1CCN(c2nc(C3(c4ccccc4)CCOCC3)cs2)CC1 [Compound 59] | – | – | – | – | – | – | – | IC50 ([1]; IC50 (nM) Against Human D3 Receptors, Example 20 table): > 1000 nM; IC50 [2]: > 1000 nM; IC50 [3]: > 1000 nM; IC50 ([4]; IC50 (nM) 5-HT2c, human 5-HT2c, Example 16 table): > 1000 nM
3 | CN1CCN(c2nc(C3(c4ccccc4F)CCCC3)cs2)CC1 [Compound 93] | < 1000 | < 500 | < 100 | < 100 | – | – | – | –
4 | CN1CCN(c2nc(C3(c4csc5ccc(Cl)cc45)CCOCC3)cs2)CC1 [Compound 36] | < 1000 | > 1000 | > 1000 | < 1000 | – | – | – | –
5 | CN1CCN(c2nc(C3(c4ccccc4F)CCCCC3)cs2)CC1 [Compound 83] | < 100 | < 1000 | < 500 | < 100 | – | – | – | –
6 | CN1CCCC1CCNc1nc(C2(c3ccccc3F)CCCCC2)cs1 (single isomer, unassigned) [Compound 130, {4-[1-(2-fluorophenyl)-cyclohexyl]-thiazol-2-yl}-[2-(1-methyl-pyrrolidin-2-yl)-ethyl]-amine] | – | – | – | – | < 100 | > 1000 | < 1000 | IC50 [4, 12]: < 10 nM
7 | CN1CCN(c2nc(C3(c4ccccc4F)CCOCC3)cs2)CC1 [Compound 112] | – | – | – | – | < 1000 | > 1000 | > 1000 | –
8 | CN1CCCC1CCNc1nc(C2(c3ccccc3F)CCCCC2)cs1 (racemic) [Compound 128, {4-[1-(2-fluorophenyl)-cyclohexyl]-thiazol-2-yl}-[2-(1-methyl-pyrrolidin-2-yl)-ethyl]-amine] | – | – | – | – | < 100 | < 1000 | < 1000 | IC50 [4, 12]: < 10 nM
9 | Clc1ccc(C2(c3csc(N4CCNCC4)n3)CCOCC2)cc1 [Compound 37] | < 1000 | < 1000 | < 500 | < 1000 | – | – | – | –
